The values that follow come from ChEMBL document CHEMBL5321251, “Visible light-activated prodrug system with a novel heavy-atom-free photosensitizer” (Bioorg Med Chem Lett, 2023).

Structures are written as SMILES. The source made the active and inactive calls. No cut-off for these calls is given here. Some results are limits rather than exact numbers.

Data set [1] concerns HeLa. Put plainly: Cytotoxicity against human HeLa cells assessed as inhibition of cell growth pre-treated with compound for 3 hrs followed by 620/25 nm red light irradiation for 30 mins measured after 72 hrs by CCK-8 assay. Format: functional, cell-based. As to conditions: for IC50: light or radiation study. (Tetrazolium dyes change colour on reduction, which living cells bring about.)

Data set [2] is described as follows: Photoactivation of the compound assessed as photocleavage in the presence of 620/25 nm red light irradiation measured after 30 mins by LC-MS analysis. The following applies: 0.5 h.
A short description of data set [3]: Photoactivation of the compound assessed as photocleavage in the absence of 620/25 nm red light irradiation measured after 2 hrs by LC-MS analysis.
Data set [4] is described as follows: Photoactivation of the compound assessed as photocleavage in the presence of 620/25 nm red light irradiation measured after 2 hrs by LC-MS analysis.
A short description of data set [5]: Photoactivation of the compound assessed as photocleavage in the presence of 520/25 nm green light irradiation by LC-MS analysis.
The subject of data set [6] is HeLa. Nature of the data set: Cytotoxicity against human HeLa cells assessed as inhibition of cell growth pre-treated with compound for 3 hrs measured after 72 hrs in dark condition by CCK-8 assay. The format is functional, cell-based. The following applies: time 75.0 hrs.
Data set [7] can be described thus: Photoactivation of the compound assessed as photocleavage in the presence of 620/25 nm red light irradiation by LC-MS analysis.

Broadly, the IC50 is the midpoint of a concentration-inhibition curve.

Consider `CCc1c2c(nc3ccc(OC(=O)/C=C/N4CCC(COC(=O)CN5C(=S)c6cc7ccc(N(C)C)cc7cc6C5=S)CC4)cc13)-c1cc3c(c(=O)n1C2)COC(=O)[C@]3(O)CC`, for which the IC50 in data set [1] is 84 nM. For the same compound, the Drug metabolism in data set [2] is listed as 50%; in data set [3], “Metabolite_Notdetected”; in data set [4] it was less than 20%.
In the case of `CC(=O)O[C@H]1C(=O)[C@@]2(C)[C@H]([C@H](OC(=O)c3ccccc3)[C@]3(O)C[C@H](OC(=O)[C@H](OC(=O)/C=C/N4CCC(COC(=O)CN5C(=S)c6cc7ccc(N(C)C)cc7cc6C5=S)CC4)[C@@H](NC(=O)c4ccccc4)c4ccccc4)C(C)=C1C3(C)C)[C@]1(OC(C)=O)CO[C@@H]1C[C@@H]2O`, the IC50 in data set [1] was 7.2 nM. Besides, the Drug metabolism entry in data set [5] was “Metabolite_Detected”; in data set [2], 80%; in data set [3] it was “Metabolite_Notdetected”. Also, the outcome in data set [6] was inactive.
Take `COc1ccc(/C=C\c2cc(OC)c(OC)c(OC)c2)cc1OC(=O)/C=C/N1CCC(COC(=O)CN2C(=S)c3cc4ccc(N(C)C)cc4cc3C2=S)CC1`: the IC50 in data set [1] was found to be 14.5 nM. In addition, the Drug metabolism was 50% in data set [2], “Metabolite_Notdetected” in data set [3] and less than 20% in data set [4].
Take `CC(=O)O[C@H]1C(=O)[C@@]2(C)[C@H]([C@H](OC(=O)c3ccccc3)[C@]3(O)C[C@H](OC(=O)[C@H](OC(=O)/C=C/N4CCC(COC(=O)CN5C(=O)c6cc7ccc(N(C)C)cc7cc6C5=O)CC4)[C@@H](NC(=O)c4ccccc4)c4ccccc4)C(C)=C1C3(C)C)[C@]1(OC(C)=O)CO[C@@H]1C[C@@H]2O`: the figures for the Drug metabolism entry in data set [1] (time 75.5 hrs) and in data set [7] were “Metabolite not detected” and “Metabolite_Notdetected”, respectively.
As to `CC(=O)O[C@H]1C(=O)[C@@]2(C)[C@H]([C@H](OC(=O)c3ccccc3)[C@]3(O)C[C@H](OC(=O)[C@H](O)[C@@H](NC(=O)c4ccccc4)c4ccccc4)C(C)=C1C3(C)C)[C@]1(OC(C)=O)CO[C@@H]1C[C@@H]2O` [PACLITAXEL], the IC50 in data set [1] was determined as 13.2 nM.
